From PubChem BioAssay (NCI)
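Step 1: Grow cells in 96-well plates. Step 2: Expose to compound for 48 hours at 5 concentrations. Step 3: Interpolate endpoints linearly; if unreached, use highest concentration. At the GI50, growth is halved. TGI is the concentration that stops growth completely.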

What was measured:
Test in all cases: NCI anticancer screen, dose series, 48 h
SNB-75 CNS = test system: SNB-75 CNS
A498 renal = test system: A498 renal
ACHN renal = test system: ACHN renal
SK-MEL-5 melanoma = test system: SK-MEL-5 melanoma
UO-31 renal = test system: UO-31 renal
KM12 colon = test system: KM12 colon
IGROV1 ovarian = test system: IGROV1 ovarian
COLO 205 colon = test system: COLO 205 colon
HL-60(TB) leukemia = test system: HL-60(TB) leukemia
UACC-257 melanoma = test system: UACC-257 melanoma
PC-3 prostate = test system: PC-3 prostate
LOX IMVI melanoma = test system: LOX IMVI melanoma
T-47D breast = test system: T-47D breast
SK-MEL-2 melanoma = test system: SK-MEL-2 melanoma
TK-10 renal = test system: TK-10 renal
K-562 leukemia = test system: K-562 leukemia
UACC-62 melanoma = test system: UACC-62 melanoma
EKVX NSCLC = test system: EKVX NSCLC
SF-295 CNS = test system: SF-295 CNS
SF-268 CNS = test system: SF-268 CNS
M14 melanoma = test system: M14 melanoma
SK-MEL-28 melanoma = test system: SK-MEL-28 melanoma
MCF7 breast = test system: MCF7 breast
NCI-H522 lung = test system: NCI-H522 lung
U251 CNS = test system: U251 CNS
OVCAR-8 ovarian = test system: OVCAR-8 ovarian
OVCAR-4 ovarian = test system: OVCAR-4 ovarian
SN12C renal = test system: SN12C renal
SR leukemia = test system: SR leukemia
SK-OV-3 ovarian = test system: SK-OV-3 ovarian
HCC-2998 colon = test system: HCC-2998 colon
HT29 colon = test system: HT29 colon
HOP-92 NSCLC = test system: HOP-92 NSCLC
A549 NSCLC = test system: A549 NSCLC
RXF 393 renal = test system: RXF 393 renal
SW-620 colon = test system: SW-620 colon
OVCAR-3 ovarian = test system: OVCAR-3 ovarian
MDA-MB-231 breast = test system: MDA-MB-231 breast
MDA-MB-435 = test system: MDA-MB-435
CAKI-1 renal = test system: CAKI-1 renal
MOLT-4 leukemia = test system: MOLT-4 leukemia
SNB-19 CNS = test system: SNB-19 CNS
NCI-H460 lung = test system: NCI-H460 lung
NCI-H226 lung = test system: NCI-H226 lung
RPMI-8226 leukemia = test system: RPMI-8226 leukemia
NCI/ADR-RES ovarian = test system: NCI/ADR-RES ovarian
SF-539 CNS = test system: SF-539 CNS
786-0 renal = test system: 786-0 renal
HOP-62 NSCLC = test system: HOP-62 NSCLC
MALME-3M melanoma = test system: MALME-3M melanoma
HS 578T breast = test system: HS 578T breast
HCT-116 colon = test system: HCT-116 colon
NCI-H23 lung = test system: NCI-H23 lung
BT-549 breast = test system: BT-549 breast
DU-145 prostate = test system: DU-145 prostate
OVCAR-5 ovarian = test system: OVCAR-5 ovarian
HCT-15 colon = test system: HCT-15 colon
CCRF-CEM leukemia = test system: CCRF-CEM leukemia

Cc1ccc(S(=O)(=O)NC2=NS(=O)(=O)c3cc(C)c(Cl)cc3S2)cc1
TGI (SNB-75 CNS): > 100 µM
TGI (A498 renal): > 100 µM
TGI (ACHN renal): > 100 µM
TGI (SK-MEL-5 melanoma): > 100 µM
TGI (UO-31 renal): > 100 µM
TGI (KM12 colon): > 100 µM
TGI (IGROV1 ovarian): > 100 µM
TGI (COLO 205 colon): > 100 µM
TGI (HL-60(TB) leukemia): > 100 µM
TGI (UACC-257 melanoma): > 100 µM
TGI (PC-3 prostate): > 100 µM
TGI (LOX IMVI melanoma): > 100 µM
TGI (T-47D breast): > 100 µM
TGI (SK-MEL-2 melanoma): > 100 µM
TGI (TK-10 renal): > 100 µM
TGI (K-562 leukemia): > 100 µM
TGI (UACC-62 melanoma): > 100 µM
TGI (EKVX NSCLC): > 100 µM
TGI (SF-295 CNS): > 100 µM
TGI (SF-268 CNS): > 100 µM
TGI (M14 melanoma): > 100 µM
TGI (SK-MEL-28 melanoma): > 100 µM
TGI (MCF7 breast): > 100 µM
TGI (NCI-H522 lung): > 100 µM
TGI (U251 CNS): > 100 µM
TGI (OVCAR-8 ovarian): > 100 µM
TGI (OVCAR-4 ovarian): > 100 µM
TGI (SN12C renal): > 100 µM
TGI (SR leukemia): > 100 µM
TGI (SK-OV-3 ovarian): > 100 µM
TGI (HCC-2998 colon): > 100 µM
TGI (HT29 colon): > 100 µM
TGI (HOP-92 NSCLC): > 100 µM
TGI (A549 NSCLC): > 100 µM
TGI (RXF 393 renal): > 100 µM
TGI (SW-620 colon): > 100 µM
TGI (OVCAR-3 ovarian): > 100 µM
TGI (MDA-MB-231 breast): > 100 µM
TGI (MDA-MB-435): > 100 µM
TGI (CAKI-1 renal): > 100 µM
TGI (MOLT-4 leukemia): > 100 µM
TGI (SNB-19 CNS): > 100 µM
TGI (NCI-H460 lung): > 100 µM
TGI (NCI-H226 lung): > 100 µM
TGI (RPMI-8226 leukemia): > 100 µM
TGI (NCI/ADR-RES ovarian): > 100 µM
TGI (SF-539 CNS): > 100 µM
TGI (786-0 renal): > 100 µM
TGI (HOP-62 NSCLC): > 100 µM
TGI (MALME-3M melanoma): > 100 µM
TGI (HS 578T breast): > 100 µM
TGI (HCT-116 colon): > 100 µM
TGI (NCI-H23 lung): > 100 µM
TGI (BT-549 breast): > 100 µM
TGI (DU-145 prostate): > 100 µM
TGI (OVCAR-5 ovarian): > 100 µM
TGI (HCT-15 colon): > 100 µM

O=Cc1ccc(O)c2ncccc12
GI50 (SNB-75 CNS): 16.9 µM
TGI (SNB-75 CNS): > 82.4 µM
GI50 (A498 renal): 25.4 µM
TGI (A498 renal): > 63.9 µM
GI50 (ACHN renal): 12.9 µM
TGI (ACHN renal): > 100 µM
GI50 (SK-MEL-5 melanoma): 2.4 µM
TGI (SK-MEL-5 melanoma): 9.45 µM
GI50 (UO-31 renal): 4.96 µM
TGI (UO-31 renal): 36.9 µM
GI50 (KM12 colon): 5.65 µM
TGI (KM12 colon): 40.5 µM
GI50 (IGROV1 ovarian): 3.32 µM
TGI (IGROV1 ovarian): 16.8 µM
GI50 (COLO 205 colon): 3.71 µM
TGI (COLO 205 colon): 17.5 µM
TGI (HL-60(TB) leukemia): > 100 µM
GI50 (UACC-257 melanoma): 3.45 µM
TGI (UACC-257 melanoma): > 53.1 µM
GI50 (PC-3 prostate): 4.01 µM
TGI (PC-3 prostate): > 46.6 µM
GI50 (LOX IMVI melanoma): 2.31 µM
TGI (LOX IMVI melanoma): > 54.5 µM
GI50 (T-47D breast): 2.56 µM
TGI (T-47D breast): > 76 µM
GI50 (SK-MEL-2 melanoma): 25.8 µM
TGI (SK-MEL-2 melanoma): > 96 µM
GI50 (TK-10 renal): 17.4 µM
TGI (TK-10 renal): 52.5 µM
GI50 (K-562 leukemia): 3.29 µM
TGI (K-562 leukemia): > 100 µM
GI50 (UACC-62 melanoma): 3.58 µM
TGI (UACC-62 melanoma): 27.6 µM
GI50 (EKVX NSCLC): 3.01 µM
TGI (EKVX NSCLC): 23.9 µM
GI50 (SF-295 CNS): 2.12 µM
TGI (SF-295 CNS): 13.1 µM
GI50 (SF-268 CNS): 2.65 µM
TGI (SF-268 CNS): > 100 µM
GI50 (M14 melanoma): 2.99 µM
TGI (M14 melanoma): 26.1 µM
GI50 (SK-MEL-28 melanoma): 7.14 µM
TGI (SK-MEL-28 melanoma): > 53.3 µM
GI50 (MCF7 breast): 2.45 µM
TGI (MCF7 breast): 8.11 µM
GI50 (NCI-H522 lung): 25.5 µM
TGI (NCI-H522 lung): 90.8 µM
GI50 (U251 CNS): 2.4 µM
TGI (U251 CNS): 23.3 µM
GI50 (OVCAR-8 ovarian): 3.28 µM
TGI (OVCAR-8 ovarian): > 100 µM
GI50 (OVCAR-4 ovarian): 2.91 µM
TGI (OVCAR-4 ovarian): > 100 µM
GI50 (SN12C renal): 3.81 µM
TGI (SN12C renal): > 100 µM
GI50 (SR leukemia): 0.858 µM
TGI (SR leukemia): > 31.8 µM
GI50 (SK-OV-3 ovarian): 10.8 µM
TGI (SK-OV-3 ovarian): 39.3 µM
GI50 (HCC-2998 colon): 11.8 µM
TGI (HCC-2998 colon): 41.8 µM
GI50 (HT29 colon): 7.46 µM
TGI (HT29 colon): 34.7 µM
GI50 (HOP-92 NSCLC): 5.01 µM
TGI (HOP-92 NSCLC): > 73.5 µM
GI50 (A549 NSCLC): 28.1 µM
TGI (A549 NSCLC): > 100 µM
GI50 (RXF 393 renal): 10.4 µM
TGI (RXF 393 renal): 33.8 µM
GI50 (SW-620 colon): 3.91 µM
TGI (SW-620 colon): 16.6 µM
GI50 (OVCAR-3 ovarian): 1.4 µM
TGI (OVCAR-3 ovarian): 6.85 µM
GI50 (MDA-MB-231 breast): 4.21 µM
TGI (MDA-MB-231 breast): > 100 µM
GI50 (MDA-MB-435): 3.83 µM
TGI (MDA-MB-435): 27.8 µM
GI50 (CAKI-1 renal): 7.29 µM
TGI (CAKI-1 renal): 35.4 µM
TGI (MOLT-4 leukemia): > 38.8 µM
GI50 (SNB-19 CNS): 6.03 µM
TGI (SNB-19 CNS): > 100 µM
GI50 (NCI-H460 lung): 3.47 µM
TGI (NCI-H460 lung): 17.2 µM
GI50 (NCI-H226 lung): 4.88 µM
TGI (NCI-H226 lung): > 79.1 µM
GI50 (RPMI-8226 leukemia): 2.2 µM
TGI (RPMI-8226 leukemia): 15.8 µM
GI50 (NCI/ADR-RES ovarian): 2.2 µM
TGI (NCI/ADR-RES ovarian): > 29.4 µM
GI50 (SF-539 CNS): 3.33 µM
TGI (SF-539 CNS): 19.3 µM
GI50 (786-0 renal): 13.4 µM
TGI (786-0 renal): 73.2 µM
GI50 (HOP-62 NSCLC): 5.59 µM
TGI (HOP-62 NSCLC): 45.3 µM
GI50 (MALME-3M melanoma): 3.62 µM
TGI (MALME-3M melanoma): 30.4 µM
GI50 (HS 578T breast): 7.05 µM
TGI (HS 578T breast): > 53.7 µM
GI50 (HCT-116 colon): 2.54 µM
TGI (HCT-116 colon): 11.7 µM
GI50 (NCI-H23 lung): 3.42 µM
TGI (NCI-H23 lung): > 55.8 µM
GI50 (BT-549 breast): 3.59 µM
TGI (BT-549 breast): > 71.8 µM
GI50 (CCRF-CEM leukemia): 0.952 µM
TGI (CCRF-CEM leukemia): > 32 µM
GI50 (DU-145 prostate): 7.28 µM
TGI (DU-145 prostate): 32.1 µM
GI50 (OVCAR-5 ovarian): 4.65 µM
TGI (OVCAR-5 ovarian): 65.5 µM
GI50 (HCT-15 colon): 1.29 µM
TGI (HCT-15 colon): 18.3 µM
